The structures appear in SMILES notation.

The values that follow come from the Deep4Chem optical property database.

The nature of this series: solvent given as SMILES.

Take `Cc1s[c+](N2CCOCC2)sc1-c1cc(I)cc(I)c1[O-]`: the absorption maximum is, setting by setting: (in C1CCOC1) 425 nm; (in CC#N) 409 nm; (in CO) 371 nm; (in ClCCl) 413 nm.

With `CCNc1cc2c(cc1C)C(c1ccccc1C(=O)O)=C1CCCC(/C=C/C3=[N+](C)c4ccc5ccccc5c4C3(C)C)=C1O2`, the absorption maximum by setting is: (in CC#N) 716 nm; (in CCO) 708 nm; (in CO) 710 nm; (in ClC(Cl)Cl) 722 nm.

Take `N#Cc1nc(N(Cc2ccccc2I)Cc2ccccc2I)c(C#N)nc1N(Cc1ccccc1I)Cc1ccccc1I`: under “in ClC(Cl)Cl”, the absorption maximum is on record as 487 nm.

`CN(C)c1ccc(-c2nc3nccnc3n2-c2ccccc2)cc1` yielded an absorption maximum (in CC#N) of 371 nm.

Under “in C1CCOC1”, `C[Si](C)(C)c1ccc(-c2ccc(-c3ccc(-c4ccc(-c5ccc([Si](C)(C)C)cc5)cc4)c4nsnc34)cc2)cc1` registered an absorption maximum of 401 nm.

On to `COc1cc(Br)cc2cc(-c3cc4cc(Br)cc(OC)c4oc3=O)oc12`, for which the absorption maximum turned out to be 353 nm (in CC#N); 355 nm (in CCOC(C)=O); 359 nm (in CS(C)=O); 360 nm (in Cc1ccccc1); 359 nm (in O).

In the case of `C(#Cc1ccccc1)C(C#Cc1ccccc1)=Cc1cccc(C=C(C#Cc2ccccc2)C#Cc2ccccc2)c1`, the absorption maximum (in ClC(Cl)Cl) stood at 349 nm.

With `CCC1=C(C)C2=C(C)c3c(C)c(-c4csc(N5CCOCC5)n4)c(C)n3[B-](F)(F)[N+]2=C1C`, the absorption maximum reads like this: (in C1CCOC1) 524 nm; (in C1COCCO1) 524 nm; (in CC#N) 516 nm; (in CC(C)O) 518 nm; (in CCO) 516 nm; (in CCOC(C)=O) 520 nm. In addition, the absorption maximum reads like this: (in CN(C)C=O) 524 nm; (in CO) 514 nm; (in CS(C)=O) 521 nm; (in Cc1ccccc1) 527 nm; (in ClC(Cl)Cl) 523 nm; (in ClCCl) 522 nm.

Consider `Cc1ccc(C2=C3C=CC(/C=C/c4ccccc4)=[N+]3[B-](F)(F)n3c(Cl)ccc32)cc1`, for which the absorption maximum reads like this: (in C1CCCCC1) 569 nm; (in C1CCOC1) 568 nm; (in C1COCCO1) 569 nm; (in CCOC(C)=O) 565 nm; (in CO) 564 nm; (in Cc1ccccc1) 572 nm. For the same compound, the absorption maximum (in ClC(Cl)Cl) is listed as 571 nm.

For `C#CCn1c2ccccc2c2cc(/C=C/C3=[N+]4C(=C(c5ccc(I)cc5)c5c(C)c(Cl)c(/C=C/c6ccc7c(c6)c6ccccc6n7CC#C)n5[B-]4(F)F)C(C)=C3Cl)ccc21`, the absorption maximum runs as follows: (in CC#N) 694 nm; (in CS(C)=O) 705 nm; (in ClC(Cl)Cl) 703 nm.

With `COc1c2ccccc2c(-c2ccccc2)c2ccccc12`, the absorption maximum reads like this: (in C1COCCO1) 378 nm; (in CCCCCC) 378 nm; (in CCCCCCC) 376 nm; (in CCCCO) 378 nm; (in CCO) 378 nm; (in CN(C)C=O) 378 nm. Moreover, the absorption maximum by setting is: (in Cc1ccccc1) 378 nm; (in ClC(Cl)(Cl)Cl) 376 nm; (in ClC(Cl)Cl) 378 nm; (in ClCCl) 378 nm; (in OCC(O)CO) 378 nm; (in OCCO) 379 nm.

Take `CCCCCCCCN1C(=O)c2ccc3c4c(-c5ccc6c(c5)c5ccccc5n6-c5ccccc5)cc5c6c(ccc(c7c(-c8ccc9c(c8)c8ccccc8n9-c8ccccc8)cc(c2c37)C1=O)c64)C(=O)N(CCCCCCCC)C5=O`: the absorption maximum (in ClC(Cl)Cl) was 609 nm.

As for `Fc1nc(F)c(F)c(C#Cc2ccccc2C#Cc2c(F)c(F)nc(F)c2F)c1F`, the absorption maximum (in CC#N) was 300 nm.

As to `Cc1ccc(C)n1-c1ccc(C#N)cc1`, the absorption maximum is, setting by setting: (in C1CCOC1) 275 nm; (in CCCCCC) 275 nm; (in CCCCCl) 275 nm; (in CCOCC) 275 nm.

Compound `CC(C)(C)c1ccc(C#Cc2cc3ccc4cc(C#Cc5ccc(C(C)(C)C)cc5)cc5ccc(c2)c3c45)cc1` returned an absorption maximum (in ClCCl) of 410 nm.

As for `CCN(CC)c1ccc(/C=C2\CC/C(=C\c3ccc(N(c4ccccc4)c4ccccc4)cc3)C2=C(C#N)C#N)cc1`, the absorption maximum (in CN(C)C=O) is 579 nm.

For `c1ccc(-c2nc(-c3ccccc3)nc(-c3ccc(-n4c5ccccc5c5ccc6c(c7ccccc7n6-c6ccccc6)c54)cc3)n2)cc1`, the absorption maximum (in Cc1ccccc1) is reported as 360 nm.

With `Oc1ccc2ncccc2c1`, the absorption maximum was determined as 331 nm (in CC#N); 333 nm (in CCCC#N); 331 nm (in CO); 332 nm (in Cc1ccccc1); 330 nm (in ClCCl).

With `CCOC(=O)c1cc(C(=O)OCC)c2ccc(N(C)C)cc2n1`, the absorption maximum (in CCO) is given as 430 nm.

Regarding `Clc1ccc(/C=C/c2ccncn2)cc1`, the absorption maximum (in ClCCl) turned out to be 310 nm.

As to `CC(C)c1cccc(C(C)C)c1-n1c(=O)c2cc3nc(-c4ccccc4)c4cc5c(=O)n(-c6c(C(C)C)cccc6C(C)C)c(=O)c6cc7nc(-c8ccccc8)c8cc(c1=O)c2c1c3c4c(c65)c7c81`, under “in ClC(Cl)Cl”, the absorption maximum stood at 488 nm.

Regarding `Cc1cc2nc3cc(C)c(N)cc3[n+](-c3ccccc3)c2cc1N`, the absorption maximum reads like this: (in CC(C)O) 537.1 nm; (in CCO) 534 nm; (in CO) 529 nm; (in O) 520 nm.

For the setting “in ClC(Cl)Cl”, `CCCCCCN1C(=O)c2cccc3cc(/N=C\c4ccc(N(c5ccccc5)c5ccccc5)cc4)cc(c23)C1=O` displayed an absorption maximum of 380 nm.

Take `Nc1cc2ccc3cccc4ccc(c1)c2c34`: the absorption maximum is recorded as 338 nm (in CC#N), 338 nm (in CCCCOCCCC) and 336 nm (in CO).

As to `C/C(=N\Nc1ccc(C#N)cc1)c1cccc(/C(C)=N/Nc2ccc(C#N)cc2)c1`, the absorption maximum was determined as 355 nm (in CC#N); 359 nm (in CCCCCC); 346 nm (in CO); 366 nm (in CS(C)=O); 353 nm (in ClC(Cl)Cl).

On to `CCCCCCCCn1cc(-n2c(-c3cc(-c4nc5ccc(C)cc5n4-c4cn(CCCCCCCC)nn4)cc(-c4nc5ccc(C)cc5n4-c4cn(CCCCCCCC)nn4)c3)nc3ccc(C)cc32)nn1`, for which the absorption maximum (in ClCCl) was 309.5 nm.

For `COc1ccc2c(-c3nc(-c4ccccc4)no3)cc(=O)oc2c1`, the absorption maximum turned out to be 344 nm (in CCO) and 345 nm (in ClC(Cl)Cl).

In turn, `N#Cc1cc(C#N)c(-c2cc(-n3c4ccccc4c4ccccc43)cc(-n3c4ccccc4c4ccccc43)c2)cc1-c1ccc(N(c2ccccc2)c2ccccc2)cc1` registered an absorption maximum (in Cc1ccccc1) of 405 nm.

On to `O=c1c2cc(C#Cc3ccc(Cl)cc3)ccc2nc2ccc(C#Cc3ccc(Cl)cc3)cn12`, for which, where the note is “in ClCCl”, the absorption maximum is given as 382 nm.

For `Cc1ccc2c(c1)nc1c(=O)n(C)c(=O)nc-1n2C`, where the note is “in CC#N”, the absorption maximum is given as 446 nm.

Take `c1cc2oc3cccc4oc5cccc6oc(c1)c2[c+](c34)c65`: under “in CC#N”, the absorption maximum amounted to 481 nm.

In turn, `N#Cc1cc(/C=C/c2ccc(/C=C/c3ccc(N(c4ccccc4)c4ccccc4)cc3)c(C#N)c2)ccc1/C=C/c1ccc(N(c2ccccc2)c2ccccc2)cc1` had an absorption maximum (in ClCCl) of 429 nm.

As to `F[B-]1(F)n2c(cc3c4ccccc4oc32)C(c2ccccc2)=C2C=c3c(oc4ccccc34)=[N+]21`, the absorption maximum stood at 586 nm (in C1CCCCC1), 581 nm (in CCOC(C)=O) and 579 nm (in CO).

`FC(F)(F)c1ccc(-c2ccc(-c3cc(-c4ccccn4)nc(-c4ccccn4)c3)cc2)cc1` showed an absorption maximum (in ClCCl) of 289 nm.

`C(=C\c1ccccn1)/c1ccc(N(c2ccc(/C=C/c3ccccn3)cc2)c2ccc(-c3nc4ccccc4nc3-c3ccc(N(c4ccc(/C=C/c5ccccn5)cc4)c4ccc(/C=C/c5ccccn5)cc4)cc3)cc2)cc1`: the absorption maximum by setting is: (in C1CCOC1) 383 nm; (in Cc1ccccc1) 378 nm.

The compound `c1ccc(-c2c3c(nc4ccccc24)-c2cc4c(cc2CC3)-c2nc3ccccc3c(-c3ccccc3)c2CC4)cc1` returned an absorption maximum (in ClC(Cl)Cl) of 376 nm.

Consider `O=C(O)c1ccc(-c2nc(-c3ccccc3)c(-c3ccccc3)[nH]2)cc1`, for which, for the setting “in CO”, the absorption maximum is 312 nm.

For `O=c1oc2ccccc2nc1-c1ccc(Cl)cc1`, the absorption maximum (in c1ccccc1) was found to be 344 nm.

As to `C[n+]1ccc(/C=C/c2cc[n+](C)cc2)cc1`, the absorption maximum (in CC#N) is 317 nm.

As to `COc1ccccc1C1=NC2c3cccc4cccc(c34)C2N1c1ccccc1` (centres undefined), the absorption maximum (in Cc1ccccc1) came to 312 nm.

As to `CCCCC(CC)CN1C(=O)c2cc(Oc3ccc(OC)cc3)c3c4c(Oc5ccc(C(C)(C)C)cc5)cc5c6c(cc(Oc7ccc(C(C)(C)C)cc7)c(c7c(Oc8ccc(OC)cc8)cc(c2c37)C1=O)c64)C(=O)N(c1c(C(C)C)cccc1C(C)C)C5=O` (centres undefined), where the note is “in Cc1ccccc1”, the absorption maximum amounted to 581 nm.

For `CCCCCCc1ccc2c3c(ccc2c1)O[B-](F)(F)[N+](c1cc([N+]2=Cc4c(ccc5cc(CCCCCC)ccc45)O[B-]2(F)F)cc([N+]2=Cc4c(ccc5cc(CCCCCC)ccc45)O[B-]2(F)F)c1)=C3`, the absorption maximum turned out to be 418 nm (in C1CCOC1), 419 nm (in CC#N), 433 nm (in Cc1ccccc1) and 428 nm (in ClCCl).

`CCOC(=O)c1c(-c2c(Cl)c3cc(C)ccc3oc2=O)nn(-c2cccc(Cl)c2)c1C(=O)OCC` came in with an absorption maximum (in ClCCl) of 331 nm.

For `CC1(C)OB(c2ccc3ccc4cccc5ccc2c3c45)OC1(C)C`, the absorption maximum (in Cc1ccccc1) came out at 378 nm.

On to `Cc1ccc(C2=C3C=CC([Te]c4ccccc4)=[N+]3[B-](F)(F)n3c([Te]c4ccccc4)ccc32)cc1`, for which, under “in C1CCOC1”, the absorption maximum is listed as 620 nm.

Turning to `c1ccc2c(c1)Cc1ccccc1N2c1c2ccccc2c(N2c3ccccc3Cc3ccccc32)c2ccccc12`, the absorption maximum (in Cc1ccccc1) was found to be 440 nm.
